Results from PubChem BioAssay (NCI).
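GI50 is the concentration that inhibits growth by half. TGI: total growth inhibition.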

What was measured:
Assay in all cases: DTP human tumour cell line panel, 384-well format
OVCAR-5 ovarian = test system: OVCAR-5 ovarian
HCT-15 colon = test system: HCT-15 colon
SNB-19 CNS = test system: SNB-19 CNS
IGROV1 ovarian = test system: IGROV1 ovarian
K-562 leukemia = test system: K-562 leukemia
HOP-62 NSCLC = test system: HOP-62 NSCLC
U251 glioblastoma = test system: U251 glioblastoma
SK-MEL-2 melanoma = test system: SK-MEL-2 melanoma
NCI-H460 NSCLC = test system: NCI-H460 NSCLC
CCRF-CEM leukemia = test system: CCRF-CEM leukemia
OVCAR-8 ovarian = test system: OVCAR-8 ovarian
ACHN renal = test system: ACHN renal
M14 melanoma = test system: M14 melanoma
SW-620 colon = test system: SW-620 colon
MCF7 breast = test system: MCF7 breast
SR leukemia = test system: SR leukemia
UACC-257 melanoma = test system: UACC-257 melanoma
DU-145 prostate = test system: DU-145 prostate
UACC-62 melanoma = test system: UACC-62 melanoma
SF-268 CNS = test system: SF-268 CNS
OVCAR-4 ovarian = test system: OVCAR-4 ovarian
NCI-H522 lung = test system: NCI-H522 lung
MOLT-4 leukemia = test system: MOLT-4 leukemia
SK-MEL-28 melanoma = test system: SK-MEL-28 melanoma
HCT-116 colon = test system: HCT-116 colon
SF-295 CNS = test system: SF-295 CNS
MDA-MB-468 breast = test system: MDA-MB-468 breast
RPMI-8226 leukemia = test system: RPMI-8226 leukemia
T-47D breast = test system: T-47D breast
MALME-3M melanoma = test system: MALME-3M melanoma
HT29 colon = test system: HT29 colon
SK-OV-3 ovarian = test system: SK-OV-3 ovarian
NCI-H226 lung = test system: NCI-H226 lung
786-0 renal = test system: 786-0 renal
KM12 colon = test system: KM12 colon
NCI-H322M lung = test system: NCI-H322M lung
UO-31 renal = test system: UO-31 renal
A549 NSCLC = test system: A549 NSCLC
SF-539 CNS = test system: SF-539 CNS
SK-MEL-5 melanoma = test system: SK-MEL-5 melanoma
SN12C renal = test system: SN12C renal
TK-10 renal = test system: TK-10 renal
HCC-2998 colon = test system: HCC-2998 colon
COLO 205 colon = test system: COLO 205 colon
HL-60(TB) leukemia = test system: HL-60(TB) leukemia
LOX IMVI melanoma = test system: LOX IMVI melanoma
CAKI-1 renal = test system: CAKI-1 renal
OVCAR-3 ovarian = test system: OVCAR-3 ovarian
RXF 393 renal = test system: RXF 393 renal
A498 renal = test system: A498 renal
HOP-92 NSCLC = test system: HOP-92 NSCLC
NCI/ADR-RES ovarian = test system: NCI/ADR-RES ovarian
BT-549 breast = test system: BT-549 breast
MDA-MB-231 breast = test system: MDA-MB-231 breast
NCI-H23 lung = test system: NCI-H23 lung
MDA-MB-435 melanoma = test system: MDA-MB-435 melanoma
PC-3 prostate = test system: PC-3 prostate

## COc1ccc(-c2ccc3ncc4c(c3c2)n(-c2ccc(N3CCNCC3)c(C(F)(F)F)c2)c(=O)n4C)cn1
OVCAR-5 ovarian
  GI50: < 10 nM
  TGI: 105 nM
HCT-15 colon
  GI50: < 10 nM
  TGI: 129 nM
SNB-19 CNS
  GI50: < 10 nM
  TGI: 192 nM
IGROV1 ovarian
  GI50: < 10 nM
  TGI: < 10 nM
K-562 leukemia
  GI50: < 10 nM
  TGI: 124 nM
HOP-62 NSCLC
  GI50: < 10 nM
  TGI: 21.6 nM
U251 glioblastoma
  GI50: < 10 nM
  TGI: 134 nM
SK-MEL-2 melanoma
  GI50: < 10 nM
  TGI: 36.5 nM
NCI-H460 NSCLC
  GI50: < 10 nM
  TGI: 83.3 nM
CCRF-CEM leukemia
  GI50: < 10 nM
  TGI: 13.6 nM
OVCAR-8 ovarian
  GI50: < 10 nM
  TGI: 124 nM
ACHN renal
  GI50: < 10 nM
  TGI: 43.8 nM
M14 melanoma
  GI50: < 10 nM
  TGI: 64.9 nM
SW-620 colon
  GI50: < 10 nM
  TGI: 122 nM
MCF7 breast
  GI50: < 10 nM
  TGI: 120 nM
SR leukemia
  GI50: < 10 nM
  TGI: < 10 nM
UACC-257 melanoma
  GI50: 11.7 nM
  TGI: 51.5 nM
DU-145 prostate
  GI50: < 10 nM
  TGI: 128 nM
UACC-62 melanoma
  GI50: < 10 nM
  TGI: 28.3 nM
SF-268 CNS
  GI50: < 10 nM
  TGI: 131 nM
OVCAR-4 ovarian
  GI50: < 10 nM
  TGI: < 10 nM
NCI-H522 lung
  GI50: < 10 nM
  TGI: 50.9 nM
MOLT-4 leukemia
  GI50: < 10 nM
  TGI: < 10 nM
SK-MEL-28 melanoma
  GI50: < 10 nM
  TGI: 42 nM
HCT-116 colon
  GI50: < 10 nM
  TGI: 130 nM
SF-295 CNS
  GI50: < 10 nM
  TGI: 10.5 nM
MDA-MB-468 breast
  GI50: < 10 nM
  TGI: < 10 nM
RPMI-8226 leukemia
  GI50: < 10 nM
  TGI: < 10 nM
T-47D breast
  GI50: < 10 nM
  TGI: < 10 nM
MALME-3M melanoma
  GI50: < 10 nM
  TGI: < 10 nM
HT29 colon
  GI50: < 10 nM
  TGI: 135 nM
SK-OV-3 ovarian
  GI50: < 10 nM
  TGI: < 10 nM
NCI-H226 lung
  GI50: < 10 nM
  TGI: 32.5 nM
786-0 renal
  GI50: < 10 nM
  TGI: 151 nM
KM12 colon
  GI50: < 10 nM
  TGI: 141 nM
NCI-H322M lung
  GI50: < 10 nM
  TGI: 109 nM
UO-31 renal
  GI50: < 10 nM
  TGI: 16.7 nM
A549 NSCLC
  GI50: < 10 nM
  TGI: 25.4 nM
SF-539 CNS
  GI50: < 10 nM
  TGI: 26.3 nM
SK-MEL-5 melanoma
  GI50: < 10 nM
  TGI: 13.8 nM
SN12C renal
  GI50: < 10 nM
  TGI: 154 nM
TK-10 renal
  GI50: < 10 nM
  TGI: 50.6 nM
HCC-2998 colon
  GI50: < 10 nM
  TGI: 103 nM
COLO 205 colon
  GI50: < 10 nM
  TGI: 21.7 nM
HL-60(TB) leukemia
  GI50: 15.5 nM
  TGI: 111 nM
LOX IMVI melanoma
  GI50: < 10 nM
  TGI: 49 nM
CAKI-1 renal
  GI50: < 10 nM
  TGI: 14.9 nM
OVCAR-3 ovarian
  GI50: < 10 nM
  TGI: 96 nM
RXF 393 renal
  GI50: < 10 nM
  TGI: 19.3 nM
A498 renal
  GI50: < 10 nM
  TGI: < 10 nM
HOP-92 NSCLC
  GI50: < 10 nM
  TGI: 19.1 nM
NCI/ADR-RES ovarian
  GI50: 107 nM
  TGI: 226 nM
BT-549 breast
  GI50: < 10 nM
  TGI: 17.2 nM
MDA-MB-231 breast
  GI50: < 10 nM
  TGI: 158 nM
NCI-H23 lung
  GI50: 11.4 nM
  TGI: 82 nM
MDA-MB-435 melanoma
  GI50: < 10 nM
  TGI: 34 nM
PC-3 prostate
  GI50: < 10 nM
  TGI: 106 nM
